The values that follow come from patent US20060094661A1, “NY-ESO-1 peptide analogs” (priority 2004, published 2006).

The target of one assay is HLA-A*0201 (Homo sapiens, UniProt P04439, D140Y/D185E/D98H/E176V/E277Q/G131W/G231S/I119V/I121R/I166T/I218V/L300P/L318F/N151K/N90K/P208A/P217A/Q86G/Q94H/R138H/R169H/T345S). In words: ED50 (M). From the text: Table printed on a drawing sheet, Figure 27B
Head of the field: ED50 (M)

The subject of assay [1] is T cell lines specific for the native epitope (PRAME425-433). The experiment in a line: Cross reactivity of PRAME425-433 analogs: IFN-γ secretion from T cell line specific for native epitope. In kind it is cell-based. The following applies: analog peptide at approximately 0.3 μM; normalized to native peptide. How it is done:
At 7 days after the last boost, the mice were sacrificed and a suspension of splenocytes prepared at 5×10^6 […] cells/ml in complete HL-1 medium. Cells were incubated with different concentrations of peptide for 48 hours in flat-bottomed 96-well plates (200 ul/well) and for an additional 24 hours with rIL-2 at 10 U/ml added to the wells. The supernatant was harvested and the concentration of IFN-gamma assessed by standard methods such as ELISA. […] The observed affinities of the analogs are reported as % binding (compared to the positive control) and ED50s. Stability of binding as half time of dissociation. Cross reactivity with the native epitope was assessed by using the analog peptides to stimulate IFG-gamma secretion from a T cell lines specific for the native epitope, essentially as described in Example 6. The data shown in FIGS. 26-28 were generated by stimulating with analog peptide at approximately 0.3 μM. […] In some cases the reported values are the average of two determinations.

Where a SMILES comes first, the peptide text is derived from it. [ ]: non-standard residue; d: D form. Nva = CCC[C@H](N)C(=O)O

As usually defined, the EC50 is the concentration that produces a half-maximal response. High values mean lower potency in that assay, low ones higher potency in that assay.

On HLA-A*0201, `CCC[C@H](NC(=O)CNC(=O)[C@@H](NC(=O)[C@H](CC(C)C)NC(=O)[C@H](Cc1c[nH]cn1)NC(=O)[C@H](CCC(N)=O)NC(=O)[C@H](CC(C)C)NC(=O)[C@H](CCC)NC(=O)[C@@H](N)CO)[C@@H](C)CC)C(=O)O` [50 | Prame 425-433 (L426(Nva),L433(Nva)), S(Nva)LQHLIG(Nva)] (H-S[Nva]LQHLIG[Nva]-OH; N-terminus and C-terminus assumed) showed an EC50 of 2940 nM. That is a single-digit micromolar value.

Compound `CCC[C@H](NC(=O)CNC(=O)[C@@H](NC(=O)[C@H](CC(C)C)NC(=O)[C@H](Cc1c[nH]cn1)NC(=O)[C@H](CCC(N)=O)NC(=O)[C@H](CC(C)C)NC(=O)[C@H](CCSC)NC(=O)[C@@H](N)CO)[C@@H](C)CC)C(=O)O` [56 | Prame 425-433 (L426M,L433(Nva))] (H-SMLQHLIG[Nva]-OH; N-terminus and C-terminus assumed) showed an EC50 at HLA-A*0201 of 688 nM.

With “Lys P1 analog: PRAME425-433 analog with Lys for the Ser at the P1 position (KLLQHLIGL)”, the “IFN-γ elicited, of that of the native peptide” value in assay [1] was 40%.
